In patent publication US20020042079A1, “METHODS AND AGENTS FOR MEASURING AND CONTROLLING MULTIDRUG RESISTANCE” (priority 1994, published 2002):
“Also recorded” adds a separate entry of the source.

Tests used:
MCF-7adr cells [1] = assay: Intravesicular pH with SNAFL-calcein; format: cell-based, human; details: monensin 10 μg/ml for 30 minutes
Text: FIG. 6a-6c show Measurements of Intravesicular pH utilizing SNAFL-calcein. […] In contrast, significant pH gradients, including an acidic pericentriolar labeling is observed in MCF7adr cells (FIG. 6b). The intravesicular pH in drug-resistant MCF-7adr cells (white bars) is […] than the vesicular pH of the drug-sensitive parental MCF-7 (black bars) (FIG. 6c). This acidic pH difference is reduced by treatment of MCF-7adr cells with monensin (dark grey). Methods: The acetoxymethylester derivative of SNAFL-calcein (15 μg/ml) (a radiometric fluorescent probe for pH) was added to both MCF-7 and MCF-7adr cells. The ester linked fluorescent probe enters the cell passively where the esters are hydrolyzed by esterases located in the cytoplasm and intracellular vesicles. […] The cells were incubated at 37° C. for 45 minutes and then examined in with the Insight confocal fluorescence. […] To obtain a quantitative relationship between emission ratios and pH, each SNAFL-calcein stained cell line was exposed to a buffer at a known pH containing nigericin/high K^+ (18 μM/150 mM KCl). […] These values were then incorporated into a pH imaging routine that provides a direct read-out of pH values for individual intracellular compartments that are queried on the computer screen. […] (c) To prepare histograms of vesicular pH, 5 vesicles within a confocal section were analyzed/cell (20 cells per cell type). […]

MCF-7/ADR cells [2] = assay: Subcellular distribution of Adriamycin fluorescence (confocal microscopy); format: cell-based, human; details: MCF-7/ADR, Monensin 5 μM, Bafilomycin A1 500 nM, concanomycin 100 nM, Tamoxifen 10 μM (50 μM in Example 3), verapamil 10 μM, cyclosporin 5 μM
Procedure: Adriamycin can be excited between 350 nm-550 nm and emits between 400 nm-700 nm.
Labeling of Cells with Adriamycin: Cells were loaded with Adriamycin (10 μM) added to the perfusion medium. […] For epi-fluorescence, the cells were excited with 450-490 nm filter and emission was monitored with a 510 nm longpass filter.

MDA-A1 cells = assay: Acridine orange labeling of acidic compartments; format: cell-based, human; details: 10 μM Tamoxifen, estrogen receptor negative cells
Procedure: Labeling of Cells with Acridine Orange: To examine intracellular acidic compartments, acridine orange (6 μM in medium from a 10 mM stock in water) was added directly to cells in the Lab-Tek chambers and the cells were incubated for 15 minutes. Cells in the presence of acridine orange were then examined utilizing an excitation at 488 nm and dual emission confocal images were simultaneously recorded using both a 530-30 band pass barrier filter (green fluorescence) and a 605 nm long pass barrier filter (red fluorescence). Optical sections of the fluorescent samples were recorded at 0.5 micron intervals with a 60×oil immersion objective.
There is red fluorescence in punctate cytoplasmic organelles and in a perinuclear region.

MCF-7/ADR cells [3] = assay: Transport of BODIPY-sphingomyelin from TGN to cell surface; format: cell-based, human; details: Tamoxifen 10 μM
Procedure: When accumulated at high concentrations, BODIPY-sphingomyelin undergoes a green to red shift in fluorescence emission.
Cells were fixed by washing two times in cold fixing buffer (1% paraformaldehyde, 0.1 M sodium cacodylate, 0.1 M sucrose, pH 7.2) followed by a 15 minute incubation in fixing buffer on ice, and then washing two times with cold fixing buffer without paraformaldehyde. […] Biophys.

MCF-7adr cells [4] = assay: Bodipy-ceramide and Bodipy-lactalbumin labeling of TGN and pericentriolar recycling compartment; format: cell-based, human; details: tamoxifen treatment of MCF-7adr cells
Text: Endocytotic pathway (fourth row): To examine internalization, Bodipy-lactalbumin (Bodipy-Lac, Molecular Probes, Eugene, Oreg.) was used as a fluid phase marker.
Conversion of Bodipy-ceramide to Bodipy-sphingomyelin (in cis-Golgi) is associated with the movement of the newly synthesized fluorescent lipid to the trans-Golgi network (TGN). As the Bodipy-sphingomyelin concentration increases within the TGN and secretory vesicles, a long wavelength shift in fluorescence occurs that results in red fluorescent structures (TGN and secretory vesicles) against a green fluorescent background. […] To examine internalization, Bodipy-lactalbumin (Bodipy-Lac, Molecular Probes, Eugene, Oreg.) was used as a fluid phase marker.

MCF-7/ADR cells [5] = assay: Transport of BODIPY-transferrin from recycling endosomes to cell surface
[6] = system: fresh liver and kidney tissue from mice; assay: In vitro acidification of organelles from fresh tissue; format: biochemical
Text: The in vitro acidification assay used purified microsomes that had been resuspended in a salt buffer without additional cytosolic or nuclear components.

Structure (SMILES) | pH of acidic vesicular compartments after treatment (MCF-7adr cells [1]) | Adriamycin distribution after addition of agent (MCF-7/ADR cells [2]) | Adriamycin distribution after addition of agent (MCF-7/ADR cells [2]; listed as monensin) | red acridine orange fluorescence after Tamoxifen (MDA-A1 cells) | red acridine orange fluorescence after Tamoxifen (MDA-A1 cells; listed as tamoxifen) | sphingomyelin fluorescence remaining associated with the cells after two hours (MCF-7/ADR cells [3]) | TGN structure (Bodipy-ceramide labeling) (MCF-7adr cells [4]) | structure of the PRC (bodipy-lactalbumin labeling) (MCF-7adr cells [4]) | time for intracellular BODIPY-transferrin to decrease to 50% of its steady-state level (MCF-7/ADR cells [5]; 10 μM tamoxifen) [min] | BODIPY-transferrin remaining with cells after 25 minutes (MCF-7/ADR cells [5]; Tamoxifen 10 μM) | BODIPY-transferrin remaining with cells after five minutes (MCF-7/ADR cells [5]; Tamoxifen 10 μM) | Adriamycin distribution after addition of agent (MCF-7/ADR cells [2]; listed as tamoxifen) | effect on in vitro acidification compared with MCF-7/ADR microsomes [6]
CC[C@@]1([C@@H]2O[C@@H]([C@H]3O[C@@](O)(CO)[C@H](C)C[C@@H]3C)C[C@@H]2C)CC[C@H]([C@]2(C)CC[C@]3(C[C@H](O)[C@@H](C)[C@@H]([C@@H](C)[C@@H](OC)[C@H](C)C(=O)O)O3)O2)O1 [Monensin] | alkalization of acidic vesicular compartments to pH values observed for drug sensitive MCF-7 cells | Adriamycin is found to accumulate within the nucleus | redistributed Adriamycin to the nucleoplasm |  |  |  |  |  |  |  |  |  | 
CC/C(=C(\c1ccccc1)c1ccc(OCCN(C)C)cc1)c1ccccc1 [Tamoxifen] |  | the concentration of Adriamycin in the nucleus was substantially increased |  | substantial reduction in the red acridine orange fluorescence | substantial decrease in the red acridine orange fluorescence | more than 70% | produces a similar fragmentation of TGN structure | disrupts the structure of the PRC | 30 | More than 60% | more than 90% | shifts the adriamycin distribution to that observed in the MCF-7 cells; also recorded: shift of Adriamycin from punctate perinuclear compartments | similar
